Experimental data reported in publication PMC8117417, “Novel Trifluoromethyl Pyrimidinone Compounds With Activity Against Mycobacterium tuberculosis” (Frontiers in Chemistry, 2021).
Converted amounts (≈) assume the structure as drawn.

Columns and labels:
HepG2 human liver cells = assay: Cytotoxicity against HepG2 cells (CellTiter-Glo); format: cell-based; conditions: concentration required to inhibit growth of HepG2 cells by 50%, 72 h exposure
Description: Cytotoxicity was measured after 72 h of compound exposure at 37°C and 5% CO2 using CellTiter-Glo (Promega).

M. tuberculosis H37Rv = assay: Minimum inhibitory concentration (IC90) against fluorescent M. tuberculosis in liquid culture; conditions: for IC90: read-out: MTB IC90
[1] = concentration required to inhibit M. tuberculosis growth by 90%, aerobic culture, 5 days, 7H9-OADC-Tw
[2] = MTB IC90 assay, Figure 1 primary hits and reference drugs in this assay

Row | Compound | IC50 (HepG2 human liver cells; Homo sapiens, HepG2, 72 h) [µM] | IC90 (M. tuberculosis H37Rv; [1]) [µM] | MIC (M. tuberculosis H37Rv; [2]) [µM] | other results
1 | Cc1c(C(F)(F)F)nc[nH]c1=O [Compound 32, 5-Methyl-6-(Trifluoromethyl)Pyrimidin-4(3H)-One] | > 100 | > 20 |  | MTB IC90 (M. tuberculosis H37Rv; [1]): no antibacterial activity; melting point: 183 to 185 °C
2 | Cc1c(C(F)(F)F)nc(C2CCCCC2)[nH]c1=O [Compound 40, 2-Cyclohexyl-5-Methyl-6-(Trifluoromethyl)Pyrimidin-4(3H)-One] | > 100 | > 20 |  | melting point: 169 to 170 °C
3 | O=c1[nH]c(-c2ccccn2)nc(C(F)(F)F)c1-c1ccccc1 [Compound 54, 5-Phenyl-2-(Pyridin-2-yl)-6-(Trifluoromethyl)Pyrimidin-4(3H)-One] | 11 | 4.5 ± 0.14 |  | IC50 (HepG2 human liver cells): 10 ± 6.4 µM; melting point: 258 to 259 °C
4 | CCCc1c(C(F)(F)F)nc(-c2ccccn2)[nH]c1=O [Compound 13] | 12 ± 1.4 | 10 ± 1.3 | 10 ± 1.3 (≈ 2.83 µg/mL) | 
5 | Cc1c(C(F)(F)F)nc(-c2ncccc2F)[nH]c1=O [Compound 45, 2-(3-Fluoropyridin-2-yl)-5-Methyl-6-(Trifluoromethyl)Pyrimidin-4(3H)-One] | > 100 | > 20 |  | 
6 | COC(=O)Cc1ccc(OCc2ccnc(-c3nc(C(F)(F)F)cc(=O)[nH]3)c2)cc1 [Compound 7] | 7.1 ± 0.14 | 3.3 ± 0.71 | 3.3 ± 0.71 (≈ 1.38 µg/mL) | 
7 | Cc1c(Cc2ccccc2)nc(-c2ccccn2)[nH]c1=O [Compound 47, 6-Benzyl-5-Methyl-2-(Pyridin-2-yl)Pyrimidin-4(3H)-One] | 9.8 ± 5.7 | 5.7 ± 0.14 |  | melting point: 120 to 121 °C
8 | Cc1c(C(F)(F)F)nc(-c2ccccc2Cl)[nH]c1=O [Compound 37, 2-(2-Chlorophenyl)-5-Methyl-6-(Trifluoromethyl)Pyrimidin-4(3H)-One] | 86 ± 24 | > 20 |  | melting point: 165 to 167 °C
9 | Cc1cnc(-c2ccccn2)[nH]c1=O [Compound 50, 5-Methyl-2-(Pyridin-2-yl)Pyrimidin-4(3H)-One] | 50 ± 13 | > 20 |  | melting point: 148 to 149 °C
10 | O=c1cc(C(F)(F)F)nc(-c2ncccc2Cl)[nH]1 [Compound 21, 2-(3-Chloropyridin-2-yl)-6-(Trifluoromethyl)Pyrimidin-4(3H)-One] | > 100 | > 20 |  | 
11 | NNC(=O)c1ccncc1 [isoniazid, reference compound] |  |  | 0.6 ± 0.2 (≈ 0.0823 µg/mL) | 
12 | CO[C@H]1/C=C/O[C@@]2(C)Oc3c(C)c(O)c4c(O)c(c(/C=N/N5CCN(C)CC5)c(O)c4c3C2=O)NC(=O)/C(C)=C\C=C\[C@H](C)[C@H](O)[C@@H](C)[C@@H](O)[C@@H](C)[C@H](OC(C)=O)[C@@H]1C [rifampicin, reference compound] |  |  |  | MIC (M. tuberculosis H37Rv; reference drug in this assay): 0.008 ± 0.0002 µM (≈ 0.00658 µg/mL)
13 | N#Cc1ccc(COc2ccnc(-c3nc(C(F)(F)F)cc(=O)[nH]3)c2)cc1 [Compound 9] | 6.1 ± 2.1 | 3.7 ± 0.85 | 3.7 ± 0.85 (≈ 1.38 µg/mL) | 
14 | Cc1c(C(F)(F)F)nc(-c2cc(COc3ccc(O)cc3)ccn2)[nH]c1=O [Compound 3] | 7.4 ± 0.28 | 7.6 ± 0.85 | 7.6 ± 0.85 (≈ 2.87 µg/mL) | 
15 | O=c1cc(C(F)(F)F)nc(-c2ncccc2F)[nH]1 [Compound 26, 2-(3-Fluoropyridin-2-yl)-6-(Trifluoromethyl)Pyrimidin-4(3H)-One] | > 100 | > 20 |  | 
16 | O=c1cc(C(F)(F)F)nc(-c2cc(OCc3ccccc3)ccn2)[nH]1 [Compound 6] | 2.5 ± 0.78 | 1.3 ± 0.21 | 1.3 ± 0.21 (≈ 0.451 µg/mL) | 

Row | Compound | IC50 (HepG2 human liver cells; Homo sapiens, HepG2, 72 h) [µM] | IC90 (M. tuberculosis H37Rv; [1]) [µM] | MIC (M. tuberculosis H37Rv; [2]) [µM] | other results
17 | COc1c(C(F)(F)F)nc(-c2ccccn2)[nH]c1=O [Compound 56, 5-Methoxy-2-(Pyridin-2-yl)-6-(Trifluoromethyl)Pyrimidin-4(3H)-One] | 5 ± 0.82 | 6.1 ± 0.26 |  | 
18 | CC(C)Cc1c(C(F)(F)F)nc(-c2ccccn2)[nH]c1=O [Compound 14] | 7.5 ± 1.3 | 5.8 ± 1.3 | 5.8 ± 1.3 (≈ 1.72 µg/mL) | 
19 | Cc1nc(-c2ccccn2)[nH]c(=O)c1C [Compound 49, 5,6-Dimethyl-2-(Pyridin-2-yl)Pyrimidin-4(3H)-One] | 88 ± 6.9 | > 20 |  | 
20 | CCCCc1c(C(F)(F)F)nc(-c2ccccn2)[nH]c1=O [Compound 2] | 5.3 ± 1.2 |  | 6.8 ± 2.0 (≈ 2.02 µg/mL) | 
21 | O=c1[nH]c(-c2ccccn2)nc(C(F)(F)F)c1CC1CC1 [Compound 11] | 11 ± 4.7 | 7.9 ± 2.1 | 7.9 ± 2.1 (≈ 2.33 µg/mL) | 
22 | O=c1cc(C(F)(F)F)nc(-c2ccccn2)[nH]1 [Compound 16, 2-(Pyridin-2-yl)-6-(Trifluoromethyl)Pyrimidin-4(3H)-One] | > 100 | 4.9 ± 0.79 |  | HepG2 IC50 (HepG2 human liver cells): lacked cytotoxicity
23 | O=c1cc(C(F)(F)F)nc(-c2ccccc2OC(F)(F)F)[nH]1 [Compound 25] | > 100 | > 20 |  | 
24 | CC[C@@H](CO)NCCN[C@@H](CC)CO [ethambutol, reference compound] |  |  | 3.3 ± 0.4 (≈ 0.674 µg/mL) | 
25 | CCOC(=O)CCCc1c(C(F)(F)F)nc(-c2ccccn2)[nH]c1=O [Compound 12] | 10 ± 4.3 | 3.1 ± 0.57 | 3.1 ± 0.57 (≈ 1.1 µg/mL) | 
26 | N#Cc1ccc(OCc2ccnc(-c3nc(C(F)(F)F)cc(=O)[nH]3)c2)cc1 [Compound 15] | 7.4 ± 1.6 | 5.3 ± 1.3 | 5.3 ± 1.3 (≈ 1.97 µg/mL) | 
27 | 5-Cyclopentyl-2-(Pyridin-2-yl)-6-(Trifluoromethyl)Pyrimidin-4(3H)-One [Compound 57] |  | 10 ± 2.6 |  | IC50 (HepG2 human liver cells): 5.9 ± 0.57 µM
28 | Cc1c(C(F)(F)F)nc(-c2ncccc2Cl)[nH]c1=O [Compound 38, 2-(3-Chloropyridin-2-yl)-5-Methyl-6-(Trifluoromethyl)Pyrimidin-4(3H)-One] | > 100 | > 20 |  | 
29 | O=C1c2ccccc2-c2nn3c(=O)cc(C(F)(F)F)nc3nc21 [Compound 1] |  |  | 3.1 ± 0.49 (≈ 0.986 µg/mL) | 
30 | O=c1cc(C(F)(F)F)nc(-c2cc(CCc3ccc(O)cc3)ccn2)[nH]1 [Compound 4] |  |  | 4.2 ± 2.1 (≈ 1.52 µg/mL) | 
31 | COc1ccccc1-c1nc(C(F)(F)F)c(C)c(=O)[nH]1 [Compound 34, 2-(2-Methoxyphenyl)-5-Methyl-6-(Trifluoromethyl)Pyrimidin-4(3H)-One] | 95 ± 9.5 |  |  | melting point: 158 to 160 °C
32 | O=c1cc(C(F)(F)F)nc(-c2ncccc2O)[nH]1 [Compound 17, 2-(3-Hydroxypyridin-2-yl)-6-(Trifluoromethyl)Pyrimidin-4(3H)-One] | 16 ± 7.6 | 3.3 ± 1.1 |  | 
